# ChEMBL document CHEMBL6182862, “Discovery of novel azetidine-based imidazopyridines as selective and orally bioavailable inhibitors of phosphodiesterase 10A for the treatment of pulmonary arterial hypertension” (Eur J Med Chem, 2025)
# Experiments:
# Cytochrome P450 3A4 = Cytochrome P450 3A4 (Homo sapiens, UniProt P08684); test: Inhibition of CYP3A4 (unknown origin); format: ADME
# in vitro [1] = settings: rat, liver microsomes
# in vitro [2] = settings: PAMPA
# [3] = molecular target: cAMP and cAMP-inhibited cGMP 3',5'-cyclic phosphodiesterase 10A (Homo sapiens, UniProt Q9Y233)
# [4] = molecular target: Dual specificity calcium/calmodulin-dependent 3',5'-cyclic nucleotide phosphodiesterase 1C (Homo sapiens, UniProt Q14123); test: Inhibition of PDE1C (147 to 531 residues) (unknown origin) using 3H-cGMP/3H-cAMP as substrate incubated for 15 mins by liquid scintillation counter analysis
# [5] = molecular target: cGMP-dependent 3',5'-cyclic phosphodiesterase (Homo sapiens, UniProt O00408); test: Inhibition of PDE2A (580 to 919 residues) (unknown origin) using 3H-cGMP as substrate incubated for 15 mins by liquid scintillation counter analysis
# [6] = molecular target: cGMP-inhibited 3',5'-cyclic phosphodiesterase 3A (Homo sapiens, UniProt Q14432); test: Inhibition of PDE3A (679 to 1087 residues) (unknown origin) using 3H-cAMP as substrate incubated for 15 mins by liquid scintillation counter analysis
# [7] = molecular target: 3',5'-cyclic-AMP phosphodiesterase 4D (Homo sapiens, UniProt Q08499); test: Inhibition of PDE4D (86 to 413 residues) (unknown origin) using 3H-cAMP as substrate incubated for 15 mins by liquid scintillation counter analysis
# [8] = molecular target: cGMP-specific 3',5'-cyclic phosphodiesterase (Homo sapiens, UniProt O76074); test: Inhibition of PDE5A1 (535 to 860 residues) (unknown origin) extracted from Escherichia coli BL21 using 3H-cGMP as substrate incubated for 15 mins by liquid scintillation counter analysis
# [9] = molecular target: Cone cGMP-specific 3',5'-cyclic phosphodiesterase subunit alpha' (Homo sapiens, UniProt P51160); test: Inhibition of PDE6C (1 to 858 residues) (unknown origin) using 3H-cGMP as substrate incubated for 15 mins by liquid scintillation counter analysis
# [10] = molecular target: High affinity 3',5'-cyclic-AMP phosphodiesterase 7A (Homo sapiens, UniProt Q13946); test: Inhibition of PDE7A1 (130 to 482 residues) (unknown origin) using 3H-cAMP as substrate incubated for 15 mins by liquid scintillation counter analysis
# [11] = molecular target: High affinity cGMP-specific 3',5'-cyclic phosphodiesterase 9A (Homo sapiens, UniProt O76083); test: Inhibition of recombinant PDE9A2 (181 to 506 residues) (unknown origin) extracted from Escherichia coli BL21 using 3H-cGMP as substrate incubated for 15 mins by liquid scintillation counter analysis
# [12] = molecular target: Dual 3',5'-cyclic-AMP and -GMP phosphodiesterase 11A (Homo sapiens, UniProt Q9HCR9); test: Inhibition of PDE11A4 (588 to 911 residues) (unknown origin) using 3H-cGMP/3H-cAMP as substrate incubated for 15 mins by liquid scintillation counter analysis
# Cytochrome P450 1A2 = molecular target: T1, Cytochrome P450 1A2 (Homo sapiens, UniProt P05177); test: Inhibition of CYP1A2 (unknown origin); format: ADME
# T1 sequence (P05177 whole entry): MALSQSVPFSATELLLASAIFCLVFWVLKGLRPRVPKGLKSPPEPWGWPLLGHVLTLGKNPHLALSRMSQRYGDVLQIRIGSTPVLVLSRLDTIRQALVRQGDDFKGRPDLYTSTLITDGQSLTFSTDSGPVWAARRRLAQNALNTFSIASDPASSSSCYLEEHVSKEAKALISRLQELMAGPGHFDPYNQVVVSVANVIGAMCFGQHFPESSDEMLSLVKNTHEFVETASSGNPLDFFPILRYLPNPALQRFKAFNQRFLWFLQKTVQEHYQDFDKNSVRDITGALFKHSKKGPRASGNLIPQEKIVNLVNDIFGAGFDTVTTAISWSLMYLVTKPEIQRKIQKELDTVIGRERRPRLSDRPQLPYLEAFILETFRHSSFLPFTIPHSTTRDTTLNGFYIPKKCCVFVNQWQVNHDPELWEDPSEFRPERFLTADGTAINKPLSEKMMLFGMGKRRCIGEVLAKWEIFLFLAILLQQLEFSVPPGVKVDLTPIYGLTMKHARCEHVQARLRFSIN
# Cytochrome P450 2C19 = Cytochrome P450 2C19 (Homo sapiens, UniProt P33261); test: Inhibition of CYP2C19 (unknown origin); format: ADME
# Cytochrome P450 2C9 = Cytochrome P450 2C9 (Homo sapiens, UniProt P11712); test: Inhibition of CYP2C9 (unknown origin); format: ADME
# Cytochrome P450 2D6 = Cytochrome P450 2D6 (Homo sapiens, UniProt P10635); test: Inhibition of CYP2D6 (unknown origin); format: ADME
# Cytochrome P450 3A4, sequence (P08684 whole entry): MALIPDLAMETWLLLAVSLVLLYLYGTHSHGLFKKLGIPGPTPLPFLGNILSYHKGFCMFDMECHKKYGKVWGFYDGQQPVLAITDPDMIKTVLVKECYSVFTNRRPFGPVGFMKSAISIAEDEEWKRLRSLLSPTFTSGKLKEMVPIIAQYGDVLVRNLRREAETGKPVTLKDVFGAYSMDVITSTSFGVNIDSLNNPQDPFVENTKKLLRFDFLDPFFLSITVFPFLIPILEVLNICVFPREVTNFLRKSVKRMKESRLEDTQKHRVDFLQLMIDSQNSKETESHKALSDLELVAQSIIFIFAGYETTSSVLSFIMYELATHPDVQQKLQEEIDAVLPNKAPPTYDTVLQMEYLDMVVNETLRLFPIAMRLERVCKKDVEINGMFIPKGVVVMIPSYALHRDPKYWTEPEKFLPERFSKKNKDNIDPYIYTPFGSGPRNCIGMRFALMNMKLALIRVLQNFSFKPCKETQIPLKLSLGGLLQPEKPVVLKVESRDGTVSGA
# cAMP and cAMP-inhibited cGMP 3',5'-cyclic phosphodiesterase 10A, sequence (Q9Y233 whole entry, the tested form may be a part): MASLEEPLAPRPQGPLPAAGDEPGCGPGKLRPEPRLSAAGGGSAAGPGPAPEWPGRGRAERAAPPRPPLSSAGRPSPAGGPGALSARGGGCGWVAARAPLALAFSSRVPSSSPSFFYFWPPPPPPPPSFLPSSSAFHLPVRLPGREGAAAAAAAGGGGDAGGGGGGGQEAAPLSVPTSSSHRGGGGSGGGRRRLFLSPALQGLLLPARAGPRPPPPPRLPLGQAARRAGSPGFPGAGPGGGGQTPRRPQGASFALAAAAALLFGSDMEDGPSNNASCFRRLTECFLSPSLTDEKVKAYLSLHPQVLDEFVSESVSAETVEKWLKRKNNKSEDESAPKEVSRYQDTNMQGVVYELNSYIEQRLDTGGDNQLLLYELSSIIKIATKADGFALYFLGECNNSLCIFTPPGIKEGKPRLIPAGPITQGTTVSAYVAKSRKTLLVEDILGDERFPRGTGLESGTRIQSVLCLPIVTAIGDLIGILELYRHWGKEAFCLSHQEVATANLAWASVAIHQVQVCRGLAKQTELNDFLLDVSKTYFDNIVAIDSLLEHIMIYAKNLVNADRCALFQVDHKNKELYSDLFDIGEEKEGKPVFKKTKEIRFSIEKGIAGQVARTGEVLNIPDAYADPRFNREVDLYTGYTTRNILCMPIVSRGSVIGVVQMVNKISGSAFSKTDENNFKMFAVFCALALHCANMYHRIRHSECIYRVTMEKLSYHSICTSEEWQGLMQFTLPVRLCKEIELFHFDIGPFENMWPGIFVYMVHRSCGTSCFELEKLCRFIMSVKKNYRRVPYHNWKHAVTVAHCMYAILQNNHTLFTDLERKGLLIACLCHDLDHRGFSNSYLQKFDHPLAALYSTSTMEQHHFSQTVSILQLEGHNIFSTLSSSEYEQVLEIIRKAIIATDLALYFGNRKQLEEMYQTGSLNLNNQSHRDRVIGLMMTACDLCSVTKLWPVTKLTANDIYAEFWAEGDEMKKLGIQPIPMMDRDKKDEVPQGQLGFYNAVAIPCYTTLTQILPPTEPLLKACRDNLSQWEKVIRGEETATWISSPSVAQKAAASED
# Dual specificity calcium/calmodulin-dependent 3',5'-cyclic nucleotide phosphodiesterase 1C, sequence (Q14123 whole entry, the tested form may be a part): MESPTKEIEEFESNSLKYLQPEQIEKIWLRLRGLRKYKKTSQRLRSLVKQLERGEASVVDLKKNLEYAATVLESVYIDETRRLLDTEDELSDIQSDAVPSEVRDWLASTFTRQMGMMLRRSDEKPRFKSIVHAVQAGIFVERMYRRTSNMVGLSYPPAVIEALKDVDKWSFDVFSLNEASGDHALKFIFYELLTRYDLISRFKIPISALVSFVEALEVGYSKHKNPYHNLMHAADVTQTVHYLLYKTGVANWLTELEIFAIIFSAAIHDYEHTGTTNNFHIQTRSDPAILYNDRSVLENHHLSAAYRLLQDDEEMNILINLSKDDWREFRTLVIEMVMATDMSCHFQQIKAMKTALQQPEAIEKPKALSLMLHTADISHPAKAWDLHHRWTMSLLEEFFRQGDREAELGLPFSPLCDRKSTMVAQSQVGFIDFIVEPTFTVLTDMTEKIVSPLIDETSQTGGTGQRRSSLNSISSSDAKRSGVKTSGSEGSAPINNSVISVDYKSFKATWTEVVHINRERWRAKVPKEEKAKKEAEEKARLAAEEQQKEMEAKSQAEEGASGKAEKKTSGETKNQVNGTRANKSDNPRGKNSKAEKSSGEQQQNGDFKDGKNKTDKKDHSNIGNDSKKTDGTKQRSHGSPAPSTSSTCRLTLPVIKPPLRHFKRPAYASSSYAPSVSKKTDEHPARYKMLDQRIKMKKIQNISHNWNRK
# Cone cGMP-specific 3',5'-cyclic phosphodiesterase subunit alpha', sequence (P51160 whole entry, the tested form may be a part): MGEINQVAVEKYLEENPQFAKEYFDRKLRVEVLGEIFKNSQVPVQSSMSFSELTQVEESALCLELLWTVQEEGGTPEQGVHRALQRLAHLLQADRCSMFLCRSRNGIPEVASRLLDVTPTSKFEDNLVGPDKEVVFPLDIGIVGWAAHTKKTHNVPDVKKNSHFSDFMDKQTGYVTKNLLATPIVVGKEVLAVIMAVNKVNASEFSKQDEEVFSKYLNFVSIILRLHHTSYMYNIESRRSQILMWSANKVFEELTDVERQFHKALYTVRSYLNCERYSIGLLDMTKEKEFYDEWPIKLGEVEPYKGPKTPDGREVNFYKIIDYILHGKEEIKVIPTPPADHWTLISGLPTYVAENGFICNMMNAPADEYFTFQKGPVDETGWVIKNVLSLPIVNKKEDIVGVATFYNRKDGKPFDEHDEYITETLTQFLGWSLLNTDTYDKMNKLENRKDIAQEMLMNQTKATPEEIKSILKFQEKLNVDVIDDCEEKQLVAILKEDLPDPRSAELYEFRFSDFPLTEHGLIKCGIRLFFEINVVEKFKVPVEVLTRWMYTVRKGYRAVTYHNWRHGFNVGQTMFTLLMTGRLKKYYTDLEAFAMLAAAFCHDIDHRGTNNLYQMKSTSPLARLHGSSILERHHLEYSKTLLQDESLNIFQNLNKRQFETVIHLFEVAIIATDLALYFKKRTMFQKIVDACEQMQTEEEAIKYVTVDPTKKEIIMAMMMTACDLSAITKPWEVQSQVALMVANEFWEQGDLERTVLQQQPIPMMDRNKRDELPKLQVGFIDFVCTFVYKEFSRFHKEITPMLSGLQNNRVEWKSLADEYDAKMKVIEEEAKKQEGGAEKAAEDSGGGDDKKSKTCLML
# Cytochrome P450 2C9, sequence (P11712 whole entry): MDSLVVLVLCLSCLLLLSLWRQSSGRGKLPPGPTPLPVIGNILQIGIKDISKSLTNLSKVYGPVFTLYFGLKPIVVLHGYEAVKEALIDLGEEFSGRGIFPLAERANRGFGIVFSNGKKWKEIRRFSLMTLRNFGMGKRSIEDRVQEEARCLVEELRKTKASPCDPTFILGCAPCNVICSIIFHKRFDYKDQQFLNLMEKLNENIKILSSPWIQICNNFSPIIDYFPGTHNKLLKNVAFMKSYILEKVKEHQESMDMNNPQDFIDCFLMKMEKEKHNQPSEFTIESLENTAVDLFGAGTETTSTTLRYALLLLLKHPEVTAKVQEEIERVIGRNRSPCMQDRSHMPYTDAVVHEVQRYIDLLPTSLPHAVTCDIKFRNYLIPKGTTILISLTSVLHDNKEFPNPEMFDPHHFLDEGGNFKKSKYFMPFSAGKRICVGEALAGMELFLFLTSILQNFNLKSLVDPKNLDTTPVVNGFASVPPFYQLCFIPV
# Dual 3',5'-cyclic-AMP and -GMP phosphodiesterase 11A, sequence (Q9HCR9 whole entry, the tested form may be a part): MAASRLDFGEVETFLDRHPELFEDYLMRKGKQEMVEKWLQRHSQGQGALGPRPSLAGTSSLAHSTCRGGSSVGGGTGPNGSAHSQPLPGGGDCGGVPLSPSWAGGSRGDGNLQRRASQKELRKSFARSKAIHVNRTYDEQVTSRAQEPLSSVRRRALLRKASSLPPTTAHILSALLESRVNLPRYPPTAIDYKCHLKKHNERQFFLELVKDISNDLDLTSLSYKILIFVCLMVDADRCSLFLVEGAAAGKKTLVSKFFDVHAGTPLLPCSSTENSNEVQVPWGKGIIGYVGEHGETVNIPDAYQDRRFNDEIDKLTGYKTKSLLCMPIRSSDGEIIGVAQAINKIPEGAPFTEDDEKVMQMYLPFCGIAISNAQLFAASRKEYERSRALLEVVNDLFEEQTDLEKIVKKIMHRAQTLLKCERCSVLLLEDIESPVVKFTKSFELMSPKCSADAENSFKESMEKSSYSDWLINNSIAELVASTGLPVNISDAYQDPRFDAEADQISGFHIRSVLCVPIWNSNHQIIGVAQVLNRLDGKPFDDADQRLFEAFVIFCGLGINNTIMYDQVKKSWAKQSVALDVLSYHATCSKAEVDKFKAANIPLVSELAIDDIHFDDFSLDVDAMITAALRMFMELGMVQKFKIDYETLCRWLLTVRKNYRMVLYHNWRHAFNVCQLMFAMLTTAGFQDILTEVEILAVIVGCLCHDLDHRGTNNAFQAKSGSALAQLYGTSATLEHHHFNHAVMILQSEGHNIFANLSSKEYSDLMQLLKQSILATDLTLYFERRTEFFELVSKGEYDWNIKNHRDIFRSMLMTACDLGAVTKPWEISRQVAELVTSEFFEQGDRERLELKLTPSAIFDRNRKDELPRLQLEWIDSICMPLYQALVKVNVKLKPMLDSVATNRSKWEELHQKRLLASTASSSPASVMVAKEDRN
# High affinity 3',5'-cyclic-AMP phosphodiesterase 7A, sequence (Q13946 whole entry, the tested form may be a part): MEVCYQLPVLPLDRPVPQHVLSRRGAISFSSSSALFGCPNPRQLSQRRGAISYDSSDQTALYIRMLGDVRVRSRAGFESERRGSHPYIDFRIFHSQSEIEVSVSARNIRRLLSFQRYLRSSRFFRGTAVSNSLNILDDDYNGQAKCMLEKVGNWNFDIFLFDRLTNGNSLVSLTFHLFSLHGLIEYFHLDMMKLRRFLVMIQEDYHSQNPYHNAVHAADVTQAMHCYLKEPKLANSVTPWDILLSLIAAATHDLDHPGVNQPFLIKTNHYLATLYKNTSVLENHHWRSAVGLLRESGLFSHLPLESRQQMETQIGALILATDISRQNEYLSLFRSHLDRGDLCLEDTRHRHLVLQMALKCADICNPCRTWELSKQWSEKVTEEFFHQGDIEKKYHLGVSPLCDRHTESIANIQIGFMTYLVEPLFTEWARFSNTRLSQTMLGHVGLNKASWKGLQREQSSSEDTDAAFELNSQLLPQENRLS
IC50 (Cytochrome P450 3A4) [µM],half-life (in vitro [1]) [min],Papp (in vitro [2]) [×10⁻⁶ cm/s],IC50 [3] [µM],IC50 [4] [µM],IC50 [5] [µM],IC50 [6] [µM],IC50 [7] [µM],IC50 [8] [µM],IC50 [9] [µM],IC50 [10] [µM],IC50 [11] [µM],IC50 [12] [µM],IC50 (Cytochrome P450 1A2) [µM],IC50 (Cytochrome P450 2C19) [µM],IC50 (Cytochrome P450 2C9) [µM],IC50 (Cytochrome P450 2D6) [µM],Compound
0.21,25,1.47,,,,,,,,,,,,,,,Cc1ccc2c(c1)nc(/C=C/c1cccc3cccnc13)n2-c1cccc(OCCCN2CCN(C)CC2)c1
,0.72,,0.0312,,,,,,,,,,,,,,Cc1ccc2c(c1)nc(C1CN(c3nc(Cl)nc4ccccc34)C1)n2-c1ccccc1
> 30,,,,> 10,> 10,> 10,1.28,> 10,> 10,> 10,> 10,> 10,> 30,> 30,> 30,9.7,CCOC(=O)c1c(C2CN(c3cc(C(=O)NCCN(CC)CC)c4ccccc4n3)C2)nc2ccccn12
